Results on one compound are retold here after publication PMC6309520 (Cell chemical biology, 2018).

For the assay, the target named is T1, ARH3 (ADP-ribosyl hydrolase 3, ADPRHL2) (Homo sapiens, UniProt Q9NX46).
T1 sequence (Q9NX46 1-363): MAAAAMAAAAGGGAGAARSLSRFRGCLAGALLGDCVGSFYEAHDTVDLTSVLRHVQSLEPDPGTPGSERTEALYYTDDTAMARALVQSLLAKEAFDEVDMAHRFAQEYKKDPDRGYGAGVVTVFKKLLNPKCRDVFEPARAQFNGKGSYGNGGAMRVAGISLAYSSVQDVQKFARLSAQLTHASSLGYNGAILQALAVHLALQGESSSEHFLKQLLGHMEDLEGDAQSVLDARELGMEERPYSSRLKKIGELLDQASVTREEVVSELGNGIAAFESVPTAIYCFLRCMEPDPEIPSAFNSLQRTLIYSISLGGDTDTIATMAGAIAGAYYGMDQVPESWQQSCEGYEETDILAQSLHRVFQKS
The assay can be described thus: Michaelis-Menten kinetics. The class given is biochemical.

On to `O=c1cc(C(F)(F)F)c2ccc(O[C@H]3O[C@H](COP(=O)(O)OP(=O)(O)OC[C@H]4O[C@@H](n5cnc6c(=O)[nH]cnc65)[C@H](O)[C@@H]4O)[C@@H](O)[C@H]3O)cc2o1` [compound 12, TFMU-IDPr], for which the Km was 312 ± 30 µM.
